Source: US20120328549A1, “OIL COMPOSITIONS” (ANTERIOS, INC., priority 2011, published 2012)

Tested on: Axillary Sweating
Assay: Clinical study of axillary sweating by gravimetric sweat measurement, double-blind versus placebo (water)
Assay type: in vivo, human
Text: The purpose of the study was to determine if Labrafac® Lipophile WL 1349 is biologically active in reducing sweating. […] Some subjects received treatment with the potentially biologically active substance and some subjects received treatment with a placebo, i.e. water. Neither the subject nor the investigator knew which treatment the subject was receiving.
Two weeks after a single treatment, subjects were re-assessed by gravimetric sweat measurement to determine the degree of sweat reduction. A comparison of post-treatment sweat production between the treatment groups was made to determine the degree of sweat reduction by the potentially biologically active substance.
• able to understand and give written informed consent • ages 18-70 years of age • diagnosis of moderate to severe primary axillary hyperhidrosis • Hyperhidrosis Disease Severity Scale score of >3 (the HDSS scale is described below) • >50 mg of sweat production/axilla in 5 minutes as measured gravimetrically • willingness to use only over-the-counter deodorants during the course of the study • willingness to shave underarms prior to each study visit • female subjects must have a negative urine pregnancy test and be non-lactating at the initial (“Baseline”) study site visit • patients should be in good general health as determined by the investigator and free of any disease that may interfere with study evaluations
The sweat production of the subject is measured gravimetrically by the following procedure: • The subject was placed in a room with relatively constant temperature and humidity for at least 30 min. • The subject was placed in a semi-reclining position with the axilla fully exposed and the arm resting comfortably above the head. • The subject's axilla was dried gently with a cotton gauze pad. • The investigator used a forceps to place one filter paper (90 mm diameter) on a balance sensitive to 0.1 mg and recorded its weight. • The investigator used a forceps to place the measured filter paper on the axilla, covered it with plastic and taped the edges of the bag against the subject's skin with hypoallergenic tape to form a seal around the plastic bag. • After 5 minutes, the investigator gently removed the tape and plastic from the subject's axilla and then, using forceps, immediately placed the filter paper onto the scale to record its weight. The scale was then dried and zero balanced. • This measurement was then repeated as described above with the other axilla.
If the subject was eligible for treatment on this basis, the subject was then treated. For treatment, one of the study preparations (0.3 mL/axilla) was applied topically with a gloved finger by the investigator to the subject's skin of the axilla. The preparation was administered in small increments to avoid run-off. The liquid was rubbed-in until vanished. […]
The subject was scheduled for a follow-up office visit two weeks after the treatment. At the follow-up office visit, the subject was questioned as to their compliance with the instructions regarding which medications not to use between treatment and the two week follow-up office visit. […] If the subject was compliant, the subject was re-assessed using the gravimetric sweat measurement procedure.
The study was conducted at multiple study sites and conducted in compliance with Good Clinical Practice standards. […] Two weeks after the treatment, each subject was re-assessed by gravimetric sweat measurement. […]

For `CCCCCCCCCCCCCC(=O)OC(C)C` [Isopropyl Myristate], the “greater effectiveness in reducing sweat production than subjects treated with placebo” value (1.89 mg per axilla topical, based on share of subjects with at least 30% reduction) was 191%, the “conclusion on activity in reducing sweat production” value (1.89 mg per axilla topical, two weeks after treatment) was “biologically active in reducing sweat production” and the “percent of subjects with at least a 30% reduction in sweat production compared to Baseline” value (1.89 mg per axilla topical, two weeks after treatment, control group 29%) was 55%. The “greater reduction in sweat production than the subjects in the control group” value (1.89 mg per axilla topical, two weeks after treatment, versus placebo (53 mg reduction)) was 195% and the “reduction in sweat production (average) as measured by gravimetric sweat measurement” value (subjects with primary axillary hyperhidrosis, single topical treatment, 1.89 mg per axilla, two weeks after treatment, 5 minute collection) was 103 mg.
